Test results as given in ChEMBL document CHEMBL1125120, “Synthesis and anticonvulsant and sedative-hypnotic activity of 4-(alkylimino)-2,3-dihydro-4H-1-benzopyrans and -benzothiopyrans” (J Med Chem, 1990).
Calls of active or inactive are those of the source. The rule behind the calls is not given here.

Experiments:
[1] = test system: Mus musculus; assay: Ability to inhibit seizures induced by pentylenetetrazole in mice administered per orally; type: functional; settings: po
[2] = test system: Rattus norvegicus; assay: Ability to potentiate pentobarbital-induced sleep administered per orally; type: functional; settings: po
[3] = test system: Mus musculus; assay: Ability to inhibit seizures induced by electroshock in mice administered per orally; i = inactive; type: functional, organism-based
[4] = (§1) Acute toxicity administered per orally; type: organism-based; settings: mouse, in vivo, po
[5] = test system: Mus musculus; assay: Ability to inhibit seizures induced by mercaptopropionic acid in mice administered per orally; i = inactive; type: functional, organism-based
[6] = test system: Rattus norvegicus; assay: Ability to potentiate pentobarbital-induced sleep administered per orally; i = inactive; type: functional, organism-based
[7] = test system: Mus musculus; assay: Ability to inhibit seizures induced by mercaptopropionic acid in mice administered per orally; type: functional; settings: po
[8] = test system: Mus musculus; assay: Ability to inhibit seizures induced by electroshock in mice administered per orally; type: functional; settings: po
[9] = test system: Mus musculus; assay: as §1; type: functional; settings: po

Row | Structure (SMILES) | ED50 [1] [mg/kg] | ED50 [2] [mg/kg] | ED50 [3] | LD50 [4] [mg/kg] | ED50 [5] | ED50 [6] | ED50 [7] [mg/kg] | ED50 [8] [mg/kg] | LD50 [9] [mg/kg]
1 | CCCCc1cc(O)c2c(c1)OC(C)(C)C[C@H]2NCC(C)O (stereo not given in full) | 15.5 | 14.2 | inactive | 800 | inactive | – | – | – | –
2 | CCCCCc1cc(O)c2c(c1)OC(C)(C)C/C2=N\CC(C)O (stereo not given) | 24.3 | – | inactive | 800 | inactive | inactive | – | – | –
3 | CN1C(=O)CN=C(c2ccccc2)c2cc(Cl)ccc21 [DIAZEPAM] | 0.5 | – | – | – | – | – | 0.7 | 1.2 | –
4 | CCCCCc1cc(O)c2c(c1)OC(C)(C)C/C2=N\C[C@@H](C)O | 14 | – | – | 800 | – | inactive | 9.4 | 13.8 | –
5 | CCCCCc1cc(O)c2c(c1)SC(C)(C)C[C@H]2NCC(C)O (stereo not given in full) | 4.8 | 9.7 | – | > 1600 | – | – | 8.8 | 20.6 | –
6 | CCCC(CCC)C(=O)[O-].[Na+] [VALPROATE SODIUM] | 200 | – | – | – | – | – | 200 | 206 | –
7 | CCCCCc1cc(O)c2c(c1)SC(C)(C)C/C2=N\CC(C)O (stereo not given) | 14.3 | 10 | inactive | > 800 | – | – | – | – | –
8 | CCCCCc1cc(O)c2c(c1)OC(C)(C)C/C2=N\CCO | 19 | – | inactive | > 800 | inactive | inactive | – | – | –
9 | CCCCCc1cc(O)c2c(c1)SC(C)(C)C/C2=N\CCO | 24 | – | inactive | – | inactive | inactive | – | – | > 800
